Source: ChEMBL document CHEMBL6182840, “A review of click chemistry in the synthesis of organophosphorus triazoles and their biological activities” (Eur J Med Chem, 2025)
pIC50: −log10 of the molar value.

Experiments:
HepG2 = test: Cytotoxicity against human HepG2 cells assessed as reduction in cell viability by MTS assay; format: functional, cell-based
Hepatitis B virus = test: Antiviral activity against HBV infected in human Huh-7 cells assessed as inhibition of HBV DNA production at 10 uM relative to control; format: functional
[1] = Cytotoxicity against human PBMC cells assessed as reduction in cell viability by MTS assay; format: functional, cell-based
MCF7 [2] = test: Cytotoxicity against human MCF7 cells assessed as reduction in cell growth by MTT assay; format: functional, cell-based
HCT-116 [3] = test: Cytotoxicity against human HCT-116 cells assessed as reduction in cell growth by MTT assay; format: functional, cell-based
[4] = Cytotoxicity against human HEF cells assessed as reduction in cell growth by MTT assay; format: functional, cell-based
Caov-3 cell line = test: Cytotoxicity against human Caov-3 cell line assessed as reduction in cell viability incubated for 72 hrs by MTT assay; format: functional, cell-based; details: Caov-3, 72 h
MCF7 [5] = test: Cytotoxicity against human MCF7 cells assessed as reduction in cell viability incubated for 72 hrs by MTT assay; format: functional, cell-based; details: MCF7, 72 h
A549 = test: Cytotoxicity against human A549 cells assessed as reduction in cell viability incubated for 72 hrs by MTT assay; format: functional, cell-based; details: A549, 72 h
PC-3 = test: Cytotoxicity against human PC-3 cells assessed as reduction in cell viability incubated for 72 hrs by MTT assay; format: functional, cell-based; details: PC-3, 72 h
HCT-116 [6] = test: Cytotoxicity against human HCT-116 cells assessed as reduction in cell viability incubated for 72 hrs by MTT assay; format: functional, cell-based; details: HCT-116, 72 h
[7] = target: T1, 4-galactosyl-N-acetylglucosaminide 3-alpha-L-fucosyltransferase FUT6 (Homo sapiens, UniProt P51993); test: Inhibition of human FUT6
T1 sequence (P51993 whole entry): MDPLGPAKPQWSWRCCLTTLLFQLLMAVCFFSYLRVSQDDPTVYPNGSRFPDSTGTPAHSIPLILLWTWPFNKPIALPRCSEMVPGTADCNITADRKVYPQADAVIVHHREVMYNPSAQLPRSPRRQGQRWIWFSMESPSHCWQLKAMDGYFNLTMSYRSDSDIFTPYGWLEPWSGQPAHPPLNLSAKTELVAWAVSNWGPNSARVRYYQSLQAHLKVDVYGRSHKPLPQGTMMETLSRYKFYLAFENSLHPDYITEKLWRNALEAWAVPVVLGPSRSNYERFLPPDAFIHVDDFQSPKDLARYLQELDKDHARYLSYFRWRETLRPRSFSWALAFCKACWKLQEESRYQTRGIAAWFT

Structure (SMILES)	pIC50 (Caov-3 cell line)	pIC50 (MCF7 [5])	pIC50 (A549)	pIC50 (PC-3)	pIC50 (HCT-116 [6])	further results
CCCCCCCCCCCCCCCCOCCCOP(=O)(C/C=C(\C)Cn1cc(C(N)=O)nn1)OCOC(=O)OC(C)C (stereo not given)						pIC50 (HepG2): 4.18; inhibition at 10 µM (Hepatitis B virus): 62%; pIC50 [1]: 4.37
CCOP(=O)(OCC)C(Cc1cn(CCN2C/C(=C\c3ccc([N+](=O)[O-])cc3)C(=O)/C(=C/c3ccc([N+](=O)[O-])cc3)C2)nn1)P(=O)(OCC)OCC						pIC50 (MCF7 [2]): 5.30; pIC50 (HCT-116 [3]): 5.30; pIC50 [4]: 5.30
CCOP(=O)(CCCn1cc(CN2C/C(=C\c3ccc(C#N)cc3)C(=O)/C(=C/c3ccc(C#N)cc3)C2)nn1)OCC	5.82	5.82	5.82	5.82	5.82	
CCOP(=O)(CCCCn1cc(CN2C/C(=C\c3ccc([N+](=O)[O-])cc3)C(=O)/C(=C/c3ccc([N+](=O)[O-])cc3)C2)nn1)OCC	5.82	5.82	5.82	5.82	5.82	
CCOP(=O)(CCCn1cc(CN2C/C(=C\c3ccc([N+](=O)[O-])cc3)C(=O)/C(=C/c3ccc([N+](=O)[O-])cc3)C2)nn1)OCC	5.82	5.82	5.82	5.82	5.82	
Nc1nc2c(ncn2[C@@H]2O[C@H](COP(=O)(O)OP(=O)(O)OCc3cn(CCCCC(=O)NCc4ccc(-c5ccccc5)cc4)nn3)[C@@H](O)[C@H]2O)c(=O)[nH]1						pIC50 [7]: 6.21
CCOP(=O)(CCCCn1cc(CN2C/C(=C\c3ccc(C#N)cc3)C(=O)/C(=C/c3ccc(C#N)cc3)C2)nn1)OCC	5.82	5.82	5.82	5.82	5.82	
CCOP(=O)(OCC)C(Cc1cn(CCN2C/C(=C\c3ccc(C#N)cc3)C(=O)/C(=C/c3ccc(C#N)cc3)C2)nn1)P(=O)(OCC)OCC						pIC50 (MCF7 [2]): 5.30; pIC50 (HCT-116 [3]): 5.30; pIC50 [4]: 5.30
CCOP(=O)(CCCn1cc(CN2C/C(=C\c3ccc(F)cc3)C(=O)/C(=C/c3ccc(F)cc3)C2)nn1)OCC	5.82	5.82	5.82	5.82	5.82	
